Reference: patent publication US9757375B2, “Compounds that inhibit human DNA ligases and methods of treating cancer” (University of Maryland, Baltimore, priority 2007, dated 2017)
“Also recorded” adds a separate entry of the source. Read-outs that look alike come from different tables or passages of the source.

What was measured:
[1] = target: T1, human DNA ligase III (Homo sapiens, UniProt P49916); experiment: High-throughput fluorescence-based DNA joining (ligation) assay; format: biochemical
T1 sequence (P49916 1-862 isoform P49916-4): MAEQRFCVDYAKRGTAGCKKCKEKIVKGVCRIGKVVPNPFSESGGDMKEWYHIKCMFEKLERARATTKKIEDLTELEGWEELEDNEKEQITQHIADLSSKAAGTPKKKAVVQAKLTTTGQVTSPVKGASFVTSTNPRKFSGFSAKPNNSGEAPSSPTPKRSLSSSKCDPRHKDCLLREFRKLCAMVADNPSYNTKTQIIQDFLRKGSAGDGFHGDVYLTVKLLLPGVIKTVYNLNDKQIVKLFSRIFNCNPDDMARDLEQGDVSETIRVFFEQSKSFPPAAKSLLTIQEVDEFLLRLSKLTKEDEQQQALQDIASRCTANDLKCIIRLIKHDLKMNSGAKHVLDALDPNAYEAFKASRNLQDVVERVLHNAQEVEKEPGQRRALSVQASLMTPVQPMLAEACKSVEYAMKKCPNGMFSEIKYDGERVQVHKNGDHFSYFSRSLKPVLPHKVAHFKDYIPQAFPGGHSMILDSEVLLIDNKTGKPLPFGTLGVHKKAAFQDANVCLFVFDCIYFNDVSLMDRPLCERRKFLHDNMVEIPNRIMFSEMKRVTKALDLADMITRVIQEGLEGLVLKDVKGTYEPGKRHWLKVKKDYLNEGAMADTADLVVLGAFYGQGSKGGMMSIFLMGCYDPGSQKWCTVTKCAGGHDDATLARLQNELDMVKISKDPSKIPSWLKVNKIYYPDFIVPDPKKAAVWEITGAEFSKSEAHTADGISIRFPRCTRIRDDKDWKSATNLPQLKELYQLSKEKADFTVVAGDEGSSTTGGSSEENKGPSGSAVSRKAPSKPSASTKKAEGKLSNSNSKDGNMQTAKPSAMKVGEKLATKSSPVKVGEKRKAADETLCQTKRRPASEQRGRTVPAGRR
Source text: (§1) The method for screening compounds comprises testing the compound for the ability to inhibit human DNA ligases I, III and IV with a high throughput fluorescence-based ligation assay. In this assay, phosphodiester bond formation covalently links together two oligonucleotides, one of which is a fluorescent donor AF488 that is 11 nucleotides from the 3′ terminus and the other contains a fluorescence acceptor and quencher, BHQ1 that is 15 nucleotides from the 5′ terminus. When these oligonucleotides are present in separate duplexes and in the same nicked or intact duplex, there is no significant quenching of fluorescence because the donor and acceptor are too far apart. As single-strands neither the AF488 oligonucleotide nor the BHQ1 oligonucleotides have significant secondary structure. However, when these oligonucleotides are ligated together, the resultant single strand forms a stable hairpin structure, in which the AF488 and BHQ1 groups are very close together, resulting in efficient intra-molecular quenching of fluorescence. Thus, in the DNA joining assay, the DNA substrate is denatured after incubation with the DNA ligase and then renatured in the presence of a 20-fold excess of an oligonucleotide that is identical to the ligated strand containing the fluorescent door and acceptor except that it lacks these modifications. Using this assay, DNA joining, which results in reduced fluorescence at 518 nm, can be measured rapidly, quantitatively and with high-throughput using a fluorescence plate reader.
(§2) Applicants developed a novel high throughput fluorescence-based ligation assay by modifying the sequence of the oligos to optimize hairpin formation by the single strand ligated product of the high throughput fluorescence-based ligation assay of Chen et al (22). […] Compound stock solutions, which were 10 mM in 0.5% DMSO, were diluted in 0.5% DMSO. Human DNA ligases I and III were assayed with a nicked DNA substrate whereas as the substrate for human DNA ligase IV was two oligonucleotide duplexes with short complementary single strand ends.

[2] = target: human DNA ligase IV (Homo sapiens, UniProt P49917); experiment: as above; format: biochemical; conditions: for % activity Inhibition hLigIV 100 uM: Ø not defined (0 in Table 5A)
Source text: as §1, §2

[3] = target: T2, hLigI (Homo sapiens, UniProt P18858); experiment: as above; format: biochemical; conditions: for inhibition of hLigI (DNA ligase I), in words: in vitro screen, 100 μmol/L, the 15 hLigI inhibitors inhibited by >50%
T2 construct: made in house
Procedure: (§3) Candidate ligase inhibitors identified by CADD were assayed for their ability to inhibit hLigI and T4 DNA ligase using a high-throughput, fluorescence energy transfer-based DNA joining assay (22). Duplicate reactions (30 μL) containing 10 pmol of nicked DNA substrate and either 0.25 pmol of hLigI or 10 units of T4 DNA ligase were incubated in the presence or absence of 100 μmol/L of the putative inhibitor. DNA binding by the candidate DNA ligase inhibitors was measured by displacement of ethidium bromide from DNA as previously described (30).
as §1, §2

[4] = target: T3, T4 DNA ligase (Enterobacteria phage T4, UniProt P00970); experiment: High-throughput fluorescence-based DNA joining assay, non-specific inhibitor control; format: biochemical, bacteriophage T4
T3 construct: purchased NEB
T3 sequence (P00970 1-487): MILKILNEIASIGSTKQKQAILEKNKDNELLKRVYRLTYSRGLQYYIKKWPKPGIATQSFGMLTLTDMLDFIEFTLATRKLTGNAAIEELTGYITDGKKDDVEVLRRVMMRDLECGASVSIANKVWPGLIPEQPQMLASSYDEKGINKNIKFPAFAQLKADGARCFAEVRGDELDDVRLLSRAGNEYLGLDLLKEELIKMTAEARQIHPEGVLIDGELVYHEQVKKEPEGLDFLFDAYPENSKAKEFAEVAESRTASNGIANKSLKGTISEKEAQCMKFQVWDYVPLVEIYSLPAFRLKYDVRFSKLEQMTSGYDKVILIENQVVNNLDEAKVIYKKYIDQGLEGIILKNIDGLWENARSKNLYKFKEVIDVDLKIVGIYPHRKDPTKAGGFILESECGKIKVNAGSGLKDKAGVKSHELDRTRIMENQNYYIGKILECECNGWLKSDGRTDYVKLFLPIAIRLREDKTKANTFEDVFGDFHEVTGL
Procedure: as §3
In addition, to identify compounds that may be non-specific inhibitors of DNA joining, the 192 compounds were also assayed for their ability to inhibit bacteriophage T4 DNA ligase, an enzyme that utilizes the same reaction mechanism as hLigI, has similar adenylation and OB-fold domains but lacks a DBD domain. (6) Although this is also an ATP-dependent DNA ligase, it lacks the domain containing the binding pocket targeted by the in silico screen. Compounds that inhibited T4 DNA ligase were eliminated as non-specific inhibitors that most likely bind to the DNA.

[5] = 100 uM, Ø not defined (0 in Table 5A), read-out: % activity Inhibition hLigIII 100 uM
[6] = 100 uM, read-out: % activity Inhibition hLigI 100 uM
[7] = read-out: % activity Inhibition LigT4 100 uM
[8] = 100 uM, Ø not defined (0 in Table 5A)
[9] = read-out: % of inhibition @ 100 μM (Helen's data) hLigIII
[10] = read-out: % of inhibition @ 100 μM (Helen's data) hLigIV
[11] = 100 μM, read-out: % of inhibition @ 100 μM (Helen's data) hLigI

T2 sequence (P18858 whole entry): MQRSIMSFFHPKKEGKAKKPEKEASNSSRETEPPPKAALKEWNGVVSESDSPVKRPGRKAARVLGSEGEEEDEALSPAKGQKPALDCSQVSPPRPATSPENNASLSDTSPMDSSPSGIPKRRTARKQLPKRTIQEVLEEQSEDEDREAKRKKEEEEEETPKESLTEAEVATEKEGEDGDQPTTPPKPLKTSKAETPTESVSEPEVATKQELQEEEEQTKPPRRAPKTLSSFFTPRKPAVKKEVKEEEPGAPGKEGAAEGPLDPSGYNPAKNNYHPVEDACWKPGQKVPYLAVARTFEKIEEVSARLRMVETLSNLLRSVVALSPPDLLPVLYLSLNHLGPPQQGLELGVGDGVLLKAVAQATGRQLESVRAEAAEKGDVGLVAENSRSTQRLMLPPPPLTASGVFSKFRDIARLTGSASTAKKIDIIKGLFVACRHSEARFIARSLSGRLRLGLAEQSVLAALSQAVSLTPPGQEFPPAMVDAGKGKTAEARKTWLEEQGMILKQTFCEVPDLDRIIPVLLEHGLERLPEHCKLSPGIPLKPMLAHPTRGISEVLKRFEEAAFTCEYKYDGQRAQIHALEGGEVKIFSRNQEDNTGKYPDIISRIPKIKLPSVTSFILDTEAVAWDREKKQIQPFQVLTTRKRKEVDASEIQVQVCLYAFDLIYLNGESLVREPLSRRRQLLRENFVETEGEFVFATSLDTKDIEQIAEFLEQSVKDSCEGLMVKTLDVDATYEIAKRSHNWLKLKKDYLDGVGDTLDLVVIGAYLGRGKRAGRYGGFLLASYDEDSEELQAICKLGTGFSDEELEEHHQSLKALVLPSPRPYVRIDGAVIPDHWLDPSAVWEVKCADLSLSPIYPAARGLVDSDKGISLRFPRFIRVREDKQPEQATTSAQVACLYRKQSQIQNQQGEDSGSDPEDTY
human DNA ligase IV, sequence (P49917 whole entry): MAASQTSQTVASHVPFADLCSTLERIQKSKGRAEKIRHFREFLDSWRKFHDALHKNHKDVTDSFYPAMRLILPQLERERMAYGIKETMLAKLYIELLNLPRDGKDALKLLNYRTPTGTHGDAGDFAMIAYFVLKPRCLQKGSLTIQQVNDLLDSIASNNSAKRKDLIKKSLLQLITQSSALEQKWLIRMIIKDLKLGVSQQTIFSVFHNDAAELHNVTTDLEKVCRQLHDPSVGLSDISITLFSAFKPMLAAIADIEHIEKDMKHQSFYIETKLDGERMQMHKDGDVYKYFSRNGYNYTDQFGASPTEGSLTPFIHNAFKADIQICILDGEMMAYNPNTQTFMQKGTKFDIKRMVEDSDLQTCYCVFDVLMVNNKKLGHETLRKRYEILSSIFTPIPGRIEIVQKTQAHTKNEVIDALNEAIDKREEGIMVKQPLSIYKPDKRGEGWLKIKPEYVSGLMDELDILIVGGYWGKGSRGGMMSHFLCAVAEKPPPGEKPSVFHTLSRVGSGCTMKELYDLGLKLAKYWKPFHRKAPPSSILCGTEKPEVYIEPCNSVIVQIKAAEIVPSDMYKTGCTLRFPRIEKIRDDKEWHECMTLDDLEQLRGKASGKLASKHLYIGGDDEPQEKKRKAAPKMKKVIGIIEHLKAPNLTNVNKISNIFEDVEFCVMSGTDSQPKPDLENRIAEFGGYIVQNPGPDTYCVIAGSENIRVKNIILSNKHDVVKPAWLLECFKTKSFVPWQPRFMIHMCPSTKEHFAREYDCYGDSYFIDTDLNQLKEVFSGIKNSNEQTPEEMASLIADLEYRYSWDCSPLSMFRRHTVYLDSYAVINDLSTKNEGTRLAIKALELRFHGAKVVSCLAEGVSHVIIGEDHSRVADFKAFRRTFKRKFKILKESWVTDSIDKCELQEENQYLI
human DNA ligase IV, sequence (Q13426 whole entry partner): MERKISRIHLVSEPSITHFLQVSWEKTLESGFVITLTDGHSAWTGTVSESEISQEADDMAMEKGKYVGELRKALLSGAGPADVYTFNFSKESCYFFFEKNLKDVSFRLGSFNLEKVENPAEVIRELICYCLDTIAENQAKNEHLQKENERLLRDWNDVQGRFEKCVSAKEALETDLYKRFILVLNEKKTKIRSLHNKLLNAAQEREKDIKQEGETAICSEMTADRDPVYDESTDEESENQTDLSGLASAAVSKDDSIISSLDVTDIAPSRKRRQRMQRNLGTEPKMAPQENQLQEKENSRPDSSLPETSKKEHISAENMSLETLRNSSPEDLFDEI

| SMILES | % activity Inhibition hLigIV 100 uM [2] | inhibition at 100 µM [3, 6] | inhibition at 100 µM [4, 7] | % activity Inhibition hLigIII 100 uM [1, 8] | further results |
| --- | --- | --- | --- | --- | --- |
| O=C1Nc2c(C(=O)O)cccc2C1=O [Compound 25] | Ø | 59.3 ± 7.5% | 12.9 ± 6.3% |  | inhibition at 100 µM ([1]; 100 μM, read-out: In vitro % inhib hLigIII 100): 73 ± 5%; inhibition at 100 µM [1, 5]: 72.8 ± 4.8%; inhibition of human DNA ligase III, in words ([1]; in vitro screen): specifically inhibit DNA ligases I and III; inhibition at 100 µM ([2]; read-out: In vitro % inhib hLigIV 100): 0%; inhibition at 100 µM ([3]; 100 μM, read-out: In vitro % inhib hLigI 100): 59 ± 8%; inhibition of hLigI (DNA ligase I), in words [3]: inhibited hLigI; also recorded: specifically inhibit DNA ligases I and III; inhibition at 100 µM ([4]; 100 μM, read-out: In vitro % inhib T4 100): 13 ± 6% |
| COC(=O)c1ccc(-n2nnnc2SCC(=O)c2ccc(O)c(O)c2)cc1 [Compound 32] |  |  |  |  | inhibition of hLigI (DNA ligase I), in words [3]: inhibited hLigI |
| Cc1[nH]c2ccc(C(=O)O)cc2c1CC(=O)O [Compound 35] | Ø | 38.7% | 3.7 ± 2.3% | Ø |  |
| O=C(O)Cn1nnnc1-c1ccc(F)cc1 [Compound 37] | Ø | 25.2 ± 14.1% | 3.7% | Ø |  |
| O=C(O)c1ccc(C(=O)c2ccc3c(c2)C(=O)N(CCO)C3=O)cc1 [Compound 46] | Ø |  |  |  | inhibition at 100 µM [1, 5]: 21.6 ± 8.56%; % activity Inhibition hLigI 100 uM ([3]; 100 uM): Ø |
| O=C(O)c1ccc(Sc2ccccn2)c([N+](=O)[O-])c1 [Compound 47] | Ø | 24.2 ± 4.3% | 2.2 ± 0.7% | Ø |  |
| CCC(Nc1ncnc2ccccc12)C(=O)O (stereo not drawn) [Compound 51] | Ø | 24.3 ± 13.5% | 0% | Ø |  |
| O=C(O)c1ccc(C(=O)O)c(C(=O)O)c1 [Compound 53] | Ø | 36.4 ± 4.7% | 3.7 ± 4.8% | Ø |  |
| Nc1nonc1C(=O)O [Compound 54] | Ø | 32.2 ± 10.5% | 6.9 ± 0.45% | Ø |  |
| COC(=O)c1ccc(S(=O)(=O)O)o1 [Compound 55] | Ø |  |  | Ø | % activity Inhibition hLigI 100 uM ([3]; 100 uM): 7.5 ± 9.3%; % activity Inhibition LigT4 100 uM [4]: 0.58 ± 3.1% |
| O=C(NN=Cc1ccc(S(=O)(=O)O)o1)c1ccccc1O [Compound 79] |  |  |  |  | % of inhibition @ 100 μM (Helen's data) hLigIII ([1]; 100 μM): NI (NI- no inhibition); % of inhibition @ 100 μM (Helen's data) hLigIV [2]: NI (NI- no inhibition); % of inhibition @ 100 μM (Helen's data) hLigI ([3]; 100 μM): NI (NI- no inhibition) |
| O=C(O)CN1C(=O)c2ccc([N+](=O)[O-])cc2C1=O [Compound 90] | Ø | 20.7 ± 4.8% | 1.6 ± 3.1% | Ø |  |
| COc1cccc(Cn2nnc(C(=O)O)c2C(=O)O)c1 [Compound 103] | Ø | 23.1 ± 1.8% | 6.2 ± 4.3% | Ø |  |
| N#CCSc1nnc(SCC#N)s1 [Compound 123] |  |  |  |  | inhibition of hLigI (DNA ligase I), in words [3]: inhibited hLigI |
| COC(=O)c1scc(Br)c1O [Compound 124] |  |  |  |  | inhibition at 100 µM [1, 9]: < 20%; inhibition at 100 µM [2, 10]: < 20%; inhibition at 100 µM [3, 11]: < 20% |
| Sc1nccc(-c2cccnc2)n1 [Compound 130] |  |  |  |  | inhibition at 100 µM [1, 9]: < 20%; inhibition at 100 µM [2, 10]: < 20%; inhibition at 100 µM [3, 11]: < 20% |
| O=C(O)c1ccc2nccnc2c1 [Compound 175] |  |  |  |  | inhibition of hLigI (DNA ligase I), in words [3]: inhibited hLigI |
| O=C(O)Cc1ccccc1S(=O)(=O)c1ccc(Cl)cc1 [Compound 193] | Ø |  |  | Ø | % of inhibition @ 100 μM (Helen's data) hLigIII ([1]; 100 μM): NI (NI- no inhibition); % of inhibition @ 100 μM (Helen's data) hLigIV [2]: NI (NI- no inhibition); % activity Inhibition hLigI 100 uM ([3]; 100 uM): 28.2 ± 34.4%; % of inhibition @ 100 μM (Helen's data) hLigI ([3]; 100 μM): NI (NI- no inhibition); % activity Inhibition LigT4 100 uM [4]: 0.44 ± 2.1% |
| COc1ccc(C(CC(=O)O)NC(=O)c2ccco2)cc1 (stereo not drawn) [Compound 207] | Ø | 20.7 ± 19% | 10 ± 2% |  | inhibition at 100 µM [1, 5]: 25.8 ± 10.7% |
| O=C(O)c1ccc([N+](=O)[O-])c(C(=O)O)n1 [Compound 212] |  |  |  |  | inhibition at 100 µM [1, 9]: < 20%; inhibition at 100 µM [2, 10]: < 20%; inhibition at 100 µM [3, 11]: < 20% |
| Oc1nn(-c2ccc(Br)cc2)cc1Br [Compound 221] |  |  |  |  | inhibition at 100 µM [1, 9]: < 20%; inhibition at 100 µM [2, 10]: < 20%; inhibition at 100 µM [3, 11]: > 20% |
